Measured values taken from patent US20020119891A1, “Integrated methods for control of aquatic weeds” (priority 2001, published 2002).
Where “and” joins values, the source holds several entries; their conditions need not be identical. Equal values may be shown once.

Columns and labels:
hydrilla [1] = assay: Pretreatment aquatic weed bioassay: apical tips grown in fluridone-treated medium, pigments of new growth assayed; assay type: in vivo, Hydrilla verticillata
Source text: (§1) As disclosed above, fluridone treatments of the invention are integrated with assays to determine the efficacy of fluridone on the local plant population in the body of water under treatment, and desirably also with assays to determine the concentration of fluridone existing during the treatment program. For example, in the present invention, an aquatic weed bioassay can be used to determine the pre-treatment susceptibility of a target plant population to fluridone. Such an assay may for instance involve the collection of meristematic stem tissue or vegetative propagules at selected sites within a body of water to be treated. The sites of collection may be logged, for instance using coordinates defined by the global positioning satellite (GPS) system. […]
(§2) At the completion of the growth period, all new growth from the plants can be excised from the original plant tissue. […] After the extraction, the extracted sample is assayed to quantitate the levels of pigments, for example chlorophyll and/or β-carotene. […] For example, spectrophotometric absorbance measurements for chlorophyll may be taken at 645 and/or 662 nm; for β-carotene may be taken at 445 nm; and for phytoene may be taken at 287 and/or 347 nm. These measured values may be compared to control data (e.g. including curves generated using samples of known concentration) to determine the level of these substances in the samples. […]

Eurasian watermilfoil [2] = assay: Pretreatment aquatic weed bioassay: sampled plants exposed to fluridone, pigments assayed; assay type: in vivo
Source text: as §1, §2

hydrilla [3] = assay: Field treatment of a water body with plant biochemical and water residue monitoring; assay type: in vivo, Hydrilla verticillata
Source text: (§3) Preferred methods of the present invention also involve plant biochemical testing conducted during the treatment. Thus, during the period in which a fluridone level is being maintained in the body of water under treatment, aquatic weed samples are obtained from the water body. This may involve, for example, collection of growing apical meristems from selected sites in the water body, preferably along with matched water samples from the same sites. Again, the sample sites can be logged using GPS or another suitable system to assist in future sampling and reference.
(§4) The aquatic weed plant samples can then be assessed to determine the effect of the maintained level of fluridone on the plants. To this end, the samples are first thoroughly washed and weighed. In a typical treatment, 6 to 12 samples per site will be collected. Similar to the discussions above, standard methods are then used to assay the level of pigments such as B-carotene, chlorophyll, and/or other relevant substances such as phytoene, in the tissue. […] The levels can be measured as discussed above using any suitable method such as spectrophotometry or fluorometry and appropriate standard curves. The measured values can then be utilized to determine whether any additional applications of fluridone or other adjustments are necessary to bring concentrations to levels that will be phytotoxic to the local aquatic weed population.
The biochemical assays discussed above, taken during treatment, are preferably used in conjunction with assays of water samples simultaneously taken, to determine the concentration of fluridone in the water body. […] The combination of measured fluridone concentration along with measured effect on plant health provides a particularly powerful method for the management of aquatic weeds in water bodies.
The Spring Creek Arm of Lake Seminole (5000 acres) was treated in May 2000 using a drip system that added fluridone based on flow rates in the river. […] Plant response to the treatment was monitored and threshold water concentrations were determined. […]

Eurasian watermilfoil [4] = assay: Field treatment of a lake with fluridone; assay type: in vivo
Source text: as §3
as §4, with “population. […]” for “population.”

aquatic weeds = details: cited from earlier work

Substance: 1-methyl-3phenyl-5-3-(trifluoromethyl)phenyl-4(1H)-pyridinone [fluridone]
- threshold concentration of fluridone (pigment concentrations in new growth) (hydrilla [1]; Example 1: hydrilla from 2500-acre Florida lake, 0, 3, 6, 12, 24 ppb, 12-day growth, no enhancement at 12 and 24 ppb): 6 ppb
- lowest rate hydrilla is susceptible to (pretreatment assay) (hydrilla [1]; Spring Creek Arm of Lake Seminole hydrilla): 5 ppb
- threshold concentration of fluridone (Eurasian watermilfoil [2]; Example 3: Eurasian watermilfoil from Wolverine Lake, Michigan, 0, 3, 6, 9, 12, 15 ppb): 6 ppb and 9 ppb
- plant response below threshold (Eurasian watermilfoil [2]; Wolverine Lake Eurasian watermilfoil, 3 ppb): rapid recovery of the plants
- weed control result of earlier treatment (hydrilla [3]; Lake Eva, 1999 treatment): very poor control
- lake concentration relative to control threshold (pigment assay) (hydrilla [3]; Lake Eva, Central Florida, treated April 2000, target rate 15 ppb): below thresholds required to provide control
- plant response at downstream sites (plant sampling) (hydrilla [3]; Spring Creek Arm of Lake Seminole, drip system treatment, May 2000): lack of impact at several downstream sites
- weed control result of field treatment (Eurasian watermilfoil [4]; Lake McKinney, Minnesota, treated late summer 1999, assessed end of following summer): could no longer be found in the lake
- weed control result of previous field applications (Eurasian watermilfoil [4]; Wolverine Lake, two applications at 5 and 6 ppb in the last 3 years): unsatisfactory results
- susceptible concentration, less sensitive species (aquatic weeds; other species, only higher concentrations): 150 ppb
- susceptible concentration, more sensitive species (aquatic weeds; some species, as low as): about 5 ppb
